From US7750017B2, “Heterocycles” (Bayer Schering Pharma Aktiengesellschaft, priority 2004, dated 2010)
Structures can show the parent of a compound that is named as a salt.

What was measured:
[1] = system: A431 cells [human epidermoid carcinoma, overexpressing HER1 (EGFR, ErbB1)]; experiment: In vitro tumor cell proliferation assay (Cell Titer-Glo luminescent cell viability), A431 cells; type: cell-based; conditions: A-431, 72 h, 72 hours of drug exposure, Cell Titer-Glo readout, read-out: IC50, anti-proliferative activity in A431 cells
From the text: (§1) The utility of the compounds of the present invention can be illustrated, for example, by their activity in vitro in the in vitro tumor cell proliferation assay described below. The link between activity in tumor cell proliferation assays in vitro and anti-tumor activity in the clinical setting has been very well established in the art.
(§2) The following assay is one of the methods by which compound activity relating to treatment of the disorders identified herein can be determined.
(§3) The tumor cell proliferation assay used to test the compounds of the present invention involves a readout called Cell Titer-Glow® Luminescent Cell Viability Assay developed by Promega® (Cunningham, B A “A Growing Issue: Cell Proliferation Assays, Modern kits ease quantification of cell growth” The Scientist 2001, 15(13), 26, and Crouch, S P et al., “The use of ATP bioluminescence as a measure of cell proliferation and cytotoxicity” Journal of Immunological Methods 1993, 160, 81-88), that measures inhibition of cell proliferation. Generation of a luminescent signal corresponds to the amount of ATP present, which is directly proportional to the number of metabolically active (proliferating) cells.
(§4) A431 cells [human epidermoid carcinoma, ATCC # […], overexpressing HER1 (EGFR, ErbB1)] and BT474 [human breast carcinoma, ATCC # CRL-1555, overexpressing HER2 (ErbB2)] were plated at a density of 2.5×10^3 cells/well in 96 well black-clear bottom tissue culture plates in RPMI media with 10% Fetal Bovine Serum and incubated at 37° C. Twenty-four hours later, test compounds are added at a final concentration range from as high 100 μm to as low 64 pM depend on the activities of the tested compounds in serial dilutions at a final DMSO concentration of 0.1%. Cells were incubated for 72 hours at 37° C. in complete growth media after addition of the test compound. After 72 hours of drug exposure, the plates were equilibrated to room temperature for approximately 30 min. Then, using a Promega Cell Titer Glo Luminescent® assay kit, lysis buffer containing 100 microliters of the enzyme luciferase and its substrate, luciferin mixture, was added to each well. The plates were mixed for 2 min on orbital shaker to ensure cell lysis and incubated for 10 min at room temperature to stabilize luminescence signal. The samples were read on VICTOR 2 using Luminescence protocol, and analyzed with Analyze5 software to generate IC50 values.

[2] = system: BT474 [human breast carcinoma, overexpressing HER2 (ErbB2)]; experiment: In vitro tumor cell proliferation assay (Cell Titer-Glo luminescent cell viability), BT474 cells; type: cell-based; conditions: BT-474, 72 h, 72 hours of drug exposure, Cell Titer-Glo readout, read-out: IC50, anti-proliferative activity in BT474 cells
From the text: as §1, §2, §3, §4

Row | IC50 [1] [µM] | IC50 [2] [µM] | SMILES
1 | ≤ 5 | ≤ 0.5 | Fc1cccc(COc2ccc(Nc3ncnc4sc5cc(CCN6CCCCC6)ccc5c34)cc2Cl)c1 [Example 17, N-{3-chloro-4-[(3-fluorobenzyl)oxy]phenyl}-7-(2-piperidin-1-ylethyl)[1] benzothieno[2,3-d]pyrimidin-4-amine]
2 | ≤ 50 | ≤ 0.5 | O=S1(=O)CCN(CCc2ccc3c(c2)sc2ncnc(Nc4ccc(OCc5cccc(F)c5)c(Cl)c4)c23)CC1 [Example 18, N-{3-chloro-4-[(3-fluorobenzyl)oxy]phenyl}-7-[2-(1,1-dioxidothiomorpholin-4-yl)ethyl][1]benzothieno[2,3-d] pyrimidin-4-amine]
3 | ≤ 50 | ≤ 5 | [O-][S+]1CCN(CCc2ccc3c(c2)sc2ncnc(Nc4ccc(OCc5cccc(F)c5)c(Cl)c4)c23)CC1 [Example 19, N-{3-chloro-4-[(3-fluorobenzyl)oxy]phenyl}-7-[2-(1-oxidothiomorpholin-4-yl)ethyl][1] benzothieno[2,3-d]pyrimidin-4-amine]
4 | ≤ 5 | ≤ 0.5 | COC1CCN(CCc2ccc3c(c2)sc2ncnc(Nc4ccc(OCc5cccc(F)c5)c(Cl)c4)c23)C1 (stereo not drawn) [Example 20, N-{3-chloro-4-[(3-fluorobenzyl)oxy]phenyl}-7-[2-(3-methoxypyrrolidin-1-yl)ethyl][1] benzothieno[2,3-d]pyrimidin-4-amine]
5 | ≤ 5 | ≤ 0.5 | CN1CCN(CCc2ccc3c(c2)sc2ncnc(Nc4ccc(OCc5cccc(F)c5)c(Cl)c4)c23)CC1 [Example 21, N-{3-chloro-4-[(3-fluorobenzyl)oxy]phenyl}-7-[2-(4-methylpiperazin-1-yl)ethyl][1] benzothieno[2,3-d]pyrimidin-4-amine]
6 | ≤ 5 | ≤ 0.5 | OCCNCCc1ccc2c(c1)sc1ncnc(Nc3ccc(OCc4cccc(F)c4)c(Cl)c3)c12 [Example 22, 2-({2-[4-({3-chloro-4-[(3-fluorobenzyl)oxy]phenyl}amino) [1]benzothieno [2,3-d]pyrimidin-7-yl]ethyl}amino)ethanol]
7 | ≤ 5 | ≤ 0.5 | Fc1cccc(COc2ccc(Nc3ncnc4sc5cc(CCN6CCNCC6)ccc5c34)cc2Cl)c1 [Example 23, N-{3-chloro-4-[(3-fluorobenzyl)oxy]phenyl}-7-(2-piperazin-1-ylethyl)[1]benzothieno [2,3-d]pyrimidin-4-amine]
8 | ≤ 5 | ≤ 5 | CN(C)[C@H]1CCN(CCc2ccc3c(c2)sc2ncnc(Nc4ccc(OCc5cccc(F)c5)c(Cl)c4)c23)C1 [Example 24, N-{3-chloro-4-[(3-fluorobenzyl)oxy]phenyl}-7-{2-[3-(dimethylamino)pyrrolidin-1-yl]ethyl}[1]benzothieno[2,3-d] pyrimidin-4-amine]
9 | ≤ 5 | ≤ 0.5 | OC[C@@H](O)c1ccc2c(c1)sc1ncnc(Nc3ccc(OCc4cccc(F)c4)c(Cl)c3)c12 [Example 26, (1S)-1-[4-({3-chloro-4-[(3-fluorobenzyl)oxy]phenyl}amino)[1]benzothieno[2,3-d]pyrimidin-7-yl]ethane-1,2-diol]
10 | ≤ 5 | ≤ 0.5 | OC[C@H](O)c1ccc2c(c1)sc1ncnc(Nc3ccc(OCc4cccc(F)c4)c(Cl)c3)c12 [Example 27, (1R)-1-[4-({3-chloro-4-[(3-fluorobenzyl)oxy]phenyl}amino) [1]benzothieno[2,3-d]pyrimidin-7-yl]ethane-1,2-diol]
11 | ≤ 5 | ≤ 0.5 | O=C(Cc1ccc2c(c1)sc1ncnc(Nc3ccc(OCc4cccc(F)c4)c(Cl)c3)c12)N1CCOCC1 [Example 28, 2-{4-[3-Chloro-4-(3-fluoro-benzyloxy)-phenylamino]-benzo[4,5]thieno[2,3-]pyrimidin-7-yl}-1-morpholin-4-yl-ethanone]
12 | ≤ 5 | ≤ 0.5 | O=C(Cc1ccc2c(c1)sc1ncnc(Nc3ccc(OCc4cccc(F)c4)c(Cl)c3)c12)NCCOCCO [Example 29, 2-[4-({3-chloro-4-[(3-fluorobenzyl)oxy]phenyl}amino)[1]benzothieno[2,3-d]pyrimidin-7-yl]-N-[2-(2-hydroxyethoxy)ethyl] acetamide]
13 | ≤ 5 | ≤ 0.5 | O=C(Cc1ccc2c(c1)sc1ncnc(Nc3ccc(OCc4cccc(F)c4)c(Cl)c3)c12)NCCN1CCOCC1 [Example 30, 2-[4-({3-chloro-4-[(3-fluorobenzyl)oxy]phenyl}amino)[1]benzothieno[2,3-d]pyrimidin-7-yl]-N-(2-morpholin-4-ylethyl)acetamide]
14 | ≤ 5 | ≤ 0.5 | O=C(Cc1ccc2c(c1)sc1ncnc(Nc3ccc(OCc4cccc(F)c4)c(Cl)c3)c12)N1CCNCC1 [Example 31, N-{3-chloro-4-[(3-fluorobenzyl)oxy]phenyl}-7-(2-oxo-2-piperazin-1-ylethyl)[1] benzothieno[2,3-d]pyrimidin-4-amine hydrochloride]
15 | ≤ 50 | ≤ 0.5 | O=C(Cc1ccc2c(c1)sc1ncnc(Nc3ccc(OCc4cccc(F)c4)c(Cl)c3)c12)NCC1CCCNC1 (stereo not drawn) [Example 33, 2-[4-({3-chloro-4-[(3-fluorobenzyl)oxy]phenyl}amino) [1]benzothieno[2,3-d]pyrimidin-7-yl]-N-(piperidin-3-ylmethyl) acetamide hydrochloride]
16 | ≤ 50 | ≤ 0.5 | Oc1ccc2c(c1)sc1ncnc(Nc3ccc(OCc4cccc(F)c4)c(Cl)c3)c12 [Example 34, 4-({3-chloro-4-[(3-fluorobenzyl)oxy]phenyl}amino)[1]benzothieno[2,3-d]pyrimidin-7-ol]
17 | ≤ 5 | ≤ 0.5 | OC[C@H](O)COc1ccc2c(c1)sc1ncnc(Nc3ccc(OCc4cccc(F)c4)c(Cl)c3)c12 [Example 36, (2S)-3-{[4-({3-chloro-4-[(3-fluorobenzyl)oxy]phenyl}amino)[1]benzothieno[2,3-d]pyrimidin-7-yl]oxy}propane-1,2-diol]
18 | ≤ 5 | ≤ 0.5 | Fc1cccc(COc2ccc(Nc3ncnc4sc5cc(OCCN6CCOCC6)ccc5c34)cc2Cl)c1 [Example 38, N-{3-chloro-4-[(3-fluorobenzyl)oxy]phenyl}-7-(2-morpholin-4-ylethoxy) [1]benzothieno[2,3-d]pyrimidin-4-amine]
19 | ≤ 5 | ≤ 0.5 | Fc1cccc(COc2ccc(Nc3ncnc4sc5cc(OCCCN6CCOCC6)ccc5c34)cc2Cl)c1 [Example 39, N-{3-chloro-4-[(3-fluorobenzyl)oxy]phenyl}-7-(3-morpholin-4-ylpropoxy)[1] benzothieno[2,3-d]pyrimidin-4-amine]
20 | ≤ 50 | ≤ 5 | Fc1cccc(COc2ccc(Nc3ncnc4sc5cc(OCCn6cccc6)ccc5c34)cc2Cl)c1 [Example 40, N-{3-chloro-4-[(3-fluorobenzyl)oxy]phenyl}-7-[2-(1H-pyrrol-1-yl)ethoxy][1] benzothieno[2,3-d]pyrimidin-4-amine]
21 | ≤ 5 | ≤ 0.5 | Fc1cccc(COc2ccc(Nc3ncnc4sc5cc(OCCN6CCCC6)ccc5c34)cc2Cl)c1 [Example 41, N-{3-chloro-4-[(3-fluorobenzyl)oxy]phenyl}-7-(2-pyrrolidin-1-ylethoxy)[1] benzothieno[2,3-d]pyrimidin-4-amine]
22 | ≤ 50 | ≤ 5 | CCOC(=O)C(Oc1ccc2c(c1)sc1ncnc(Nc3ccc(OCc4cccc(F)c4)c(Cl)c3)c12)C(=O)OCC [Example 42, diethyl {[4-({3-chloro-4-[(3-fluorobenzyl)oxy]phenyl}amino)[1]benzothieno[2,3-d]pyrimidin-7-yl]oxy}malonate trifluoroacetate]
23 | ≤ 50 | ≤ 0.5 | OCC(CO)Oc1ccc2c(c1)sc1ncnc(Nc3ccc(OCc4cccc(F)c4)c(Cl)c3)c12 [Example 43, 2-{[4-({3-chloro-4-[(3-fluorobenzyl)oxy]phenyl}amino) [1]benzothieno[2,3-d]pyrimidin-7-yl]oxy}propane-1,3-diol trifluoroacetate (salt)]

Row | SMILES | IC50 [1] [µM] | IC50 [2] [µM]
24 | CN1CCN(C(=O)Cc2ccc3c(c2)sc2ncnc(Nc4ccc(OCc5cccc(F)c5)c(Cl)c4)c23)CC1 [Example 32, N-{3-chloro-4-[(3-fluorobenzyl)oxy]phenyl}-7-[2-(4-methylpiperazin-1-yl)-2-oxoethyl][1]benzothieno[2,3-d] pyrimidin-4-amine] | ≤ 5 | ≤ 0.5
